Test results taken from patent US8901037B2, “Composition having a germination-preventing activity, processes for obtaining said compositions and use thereof” (Isagro S.p.A., priority 2006, dated 2014).

Assays:
weeds = experiment: germination-preventing action in treated soil; assay type: in vivo; conditions: minimum amounts of 4 g per square meter of soil
[1] = cited from earlier work

C=CCN=C=S [allyl isothiocyanate, Allyl isothiocyanate]
germination-preventing action (weeds): marked germination-preventing action
vapour pressure at 25° C. [1]: 5 mmHg

CN=C=S [methyl isothiocyanate, reference compound]
vapour pressure at 25° C. [1]: 19 mmHg
